Test results taken from patent US20250041235A1, “FUNCTIONALIZED BIOLOGICAL MEMBRANES WITH MODIFYING PROTEIN MOLECULES, AND METHODS OF MAKING AND USES THEREOF” (McMaster University, priority 2021, published 2025).

Key:
red blood cells = assay: Hemolytic assay (hemoglobin release by UV absorption); assay type: cell-based; settings: PmB concentrations from 0 MIC to MIC
Method: 12% Triton X-100 was used as a total lysis control, and PBS was used as a negative control.
Hemolysis was determined from hemoglobin release measured by UV absorption. Data are shown for free PmB and Erythro-PmBs at different PmB concentrations from 0 MIC to MIC. Values in the order of 0.03% were determined to be well below the benchmark hemolysis rate of 2% identified by the American Society of Clinical Pathology and were considered to be non-hemolytic. […] Hemolytic activity of the Erythro-PmBs was less than that of free PmB, less than 0.01%, and independent of PmB concentration (within experimental error).

K. aerogenes = assay: Bacterial growth curves (OD600, 24 h) for K. aerogenes; assay type: cell-based, Klebsiella aerogenes
Source text: The lengths of the lag phase decreased monotonously with decreasing PmB concentration, similar to E. coli.
Bacterial growth curves for K. aerogenes for different concentrations of (free) PmB (MIC, 0.5 MIC, 0.25 MIC, and 0 MIC) are shown in FIG. 13 a). […] Diauxic growth was less evident in the presence of free PmB: 0.25 MIC to MIC.

E. coli = assay: Bacterial growth curves (OD600, 24 h) for E. coli; assay type: cell-based
Method: Bacterial growth curves for E. coli for different concentrations of (free) PmB (MIC, 0.5 MIC, 0.25 MIC, and 0 MIC) are shown in FIG. 12 a). […] Absorbance at 600 nm (OD 600) was measured during a period of 24 h. […] Bacteria treated with 0.25 MIC behaved similarly. A lag phase was observed before the first exponential cycle after the addition of an intermediate concentration of 0.5 MIC, where exponential growth was delayed by ˜9 h. […] Growth curves for E. coli treated with varying concentrations of Erythro-PmBs containing MIC, 0.5 MIC, 0.25 MIC, and 0 MIC of PmB are shown in FIG. 12 b).

Substance: polymyxin B [free PmB]
- hemolysis (red blood cells): ~0.03%
- lag phase (K. aerogenes; 0.25 MIC): 6 h
- lag phase (K. aerogenes; 0.5 MIC): 9 h
- minimum inhibitory concentration (MIC) (K. aerogenes; OD600 over 24 h): 1.5 µg/mL
- delay of exponential growth (lag phase) (E. coli; 0.5 MIC): ~9 h
- minimum inhibitory concentration (MIC) (E. coli; OD600 over 24 h): 0.63 µg/mL
- growth at MIC (E. coli; PmB content at MIC (0.63 μg/mL)): No growth
